We go through nine compounds from US7507761B2, “Benzopyran derivatives, method of production and use thereof” (Universite de Liege, priority 2004, dated 2009).

The test system of test [1] is rat pancreatic islets. As to conditions: cited from earlier work; for Residual insulin secretion (%) [10 μM]: 10 μM compound, published results (footnotes b, c).
Test [2] concerns rat pancreatic islets. Kind of test: Insulin release from incubated rat pancreatic islets. The note with it: 10 μM compound, 16.7 mM glucose, % of control without drug; mean ± s.e.m. (n). The format is cell-based. On the procedure:
Measurement of insulin release from incubated rat pancreatic islets was performed according to the following procedure.
Experiments were performed with pancreatic islets isolated from adult fed Wistar rats (Charles River Laboratories, Belgium).
Groups of 10 islets, each derived from the same batch of islets, were preincubated for 30 minutes at 37° C. in 1 mL of a physiological salt medium (in mM: NaCl 115, KCl 5, CaCl2 2.56, MgCl2 1, NaHCO3 24) supplemented with 2.8 mM glucose, 0.5% (w:v) dialyzed albumin (Sigma) and equilibrated against a mixture of O2 (95%) and CO2 (5%). The islets were then incubated at 37° C. for 90 minutes in 1 mL of the same medium containing 16.7 mM glucose and, in addition, the required benzopyran derivative.
The release of insulin was measured radioimmunologically according to Leclercq-Meyer et al., Endocrinology, 1985, 116, 1168-1174 using rat insulin as a standard.
Residual insulin secretion was expressed as a percentage of the value recorded in control experiments (100%); i.e. in the absence of drug and presence of 16.7 mM glucose. Measurement of 86Rb outflow from perifused rat pancreatic islets was performed according to the following procedure. Groups of 100 islets were incubated for 60 min in a medium containing 16.7 mM glucose and 86Rb (0.15-0.25 mM; 50 μCi/ml). After incubation, the islets were washed three times and then placed in a perifusion chamber. The perifusate was delivered at a constant rate (1.0 ml/min). From the 31st to the 90th min, the effluent was continuously collected over successive periods of 1 min each. An aliquot of the effluent (0.6 ml) was used for scintillation counting. At the end of the perifusion, the radioactive content of the islets was determined. The outflow of 86Rb (cpm/min) was expressed as a fractional outflow rate (% of instantaneous islet content/min; FOR).

In the next test the test system is rat aorta rings. The experiment in a line: Measurement of tension in rat aorta rings (myorelaxant activity). The format is cell-based. As to conditions: KCl-contracted rat aorta rings; concentration evoking 50% inhibition of plateau phase; mean ± s.e.m. (n); read-out: Myorelaxant activity ED50. The protocol:
Measurement of tension in rat aorta rings was performed according to the following procedure.
Experiments were performed with aorta removed from adult fed Wistar rats (Charles River Laboratories, Belgium).
A section of the thoracic aorta was cleared of adhering fat and connective tissue and was cut into transverse rings (3-4 mm long). The endothelium was removed and the segments suspended under 1.5 g tension in an organ bath containing 20 mL of a physiological solution (in mM: NaCl 118, KCl 4.7, CaCl2 2.5, NaHCO3 25, KH2PO4 1.2, MgSO4 1.2, glucose 5). The physiological solution was maintained at 37° C. and continuously bubbled with a mixture of O2 (95%) and CO2 (5%). Isometric contractions were measured with a force-displacement transducer. After 60 minutes of equilibration, the rings were exposed to KCl (30 or 80 mM). When the tension had stabilized, the chroman derivative was added to the bath at increasing concentrations until maximal relaxation (or until 300 µM). Some experiments were repeated in the continuous presence of 1 or 10 µM glibenclamide in the bathing medium.
The relaxation response was expressed as the percentage of the contractile response to KCl. The ED50 values (concentration evoking 50% inhibition of the plateau phase induced by KCl) were assessed from dose-response curves using Datanalyst software (EMKA Technologies, France).

Read-outs that look alike come from different tables or passages of the source.

Regarding `CC1(C)Oc2ccc(C#N)cc2C(N2CCCC2=O)C1O` (stereo not drawn) [Cromakalim, cromakalim], in the test with rat pancreatic islets [1] (background statement, reflects poor activity as PCO on pancreatic KATP channels), the “Activity as an inhibitor of insulin secretion (in words)” value is “poorly active”. Besides, the “Residual insulin secretion (%) [10 μM]” value in the test on rat pancreatic islets [2] is 94.7 ± 4.3 (24) %. In the test with rat aorta rings, the EC50 is 0.13 ± 0.01 µM. With `CC1=NS(=O)(=O)c2cc(Cl)ccc2N1` [Diazoxide, diazoxide], the “Residual insulin secretion (%) [10 μM]” value in the test with rat pancreatic islets [1] is listed as 71.7 ± 2.8 (38)^b %. `Cc1cccc(NC(=S)NC2CC(C)(C)Oc3ccc(F)cc32)c1` (stereo not drawn) [Example 4, R/S-3,4-Dihydro-2,2-dimethyl-6-fluoro-4-(3-methylphenylaminothiocarbonylamino)-2H-1-benzopyran]: in the test on rat pancreatic islets [2], the “Residual insulin secretion (%) [10 μM]” value was 53.1 ± 3.6%. Same read-out and setting: the value for `Cc1ccc(NC(=S)NC2CC(C)(C)Oc3ccc(Cl)cc32)cc1` (stereo not drawn) [Example 8, R/S-6-Chloro-3,4-dihydro-2,2-dimethyl-4-(4-methylphenylaminothiocarbonylamino)-2H-1-benzopyran] was 32.8 ± 1.9%; that for `COc1cccc(NC(=S)NC2CC(C)(C)Oc3ccc(F)cc32)c1` (stereo not drawn) [Example 22, R/S-3,4-Dihydro-2,2-dimethyl-6-fluoro-4-(3-methoxyphenylaminothiocarbonylamino)-2H-1-benzopyran] was 52.0 ± 2.3%; that for `CC1(C)CC(NC(=S)Nc2cccnc2)c2cc(Br)ccc2O1` (stereo not drawn) [Example 42, R/S-6-Bromo-3,4-dihydro-2,2-dimethyl-4-(3-pyridylaminothiocarbonylamino)-2H-1-benzopyran] was 44.3 ± 2.8%. Same read-out and setting: the value for `CC1(C)CC(NC(=O)Nc2cccc(Cl)c2)c2cc(F)ccc2O1` (stereo not drawn) [Example 77, R/S-4-(3-Chlorophenylaminocarbonylamino)-3,4-dihydro-2,2-dimethyl-6-fluoro-2H-1-benzopyran] was 28.0 ± 1.5%; that for `CC1(C)CC(NC(=O)Nc2ccc(Cl)cc2)c2cc(Br)ccc2O1` (stereo not drawn) [Example 82, R/S-6-Bromo-4-(4-chlorophenylaminocarbonylamino)-3,4-dihydro-2,2-dimethyl-2H-1-benzopyran] was 25.7 ± 1.5%. Take `CC(N/C(=N\C#N)Nc1ccncc1)C(C)(C)C` (stereo not drawn) [Pinacidil, pinacidil]: the “Residual insulin secretion (%) [10 μM]” value in the test with rat pancreatic islets [1] is 96.0 ± 4.2 (20)^c %. The EC50 in the test on rat aorta rings was 0.35 ± 0.02 µM.
